One assay has as its system A549. The assay is described as follows: Cytotoxicity against A549 cells; No cytotoxicity. It counts as functional, cell-based. The note with it: Homo sapiens.
For another assay, the system named is HCEC. Put plainly: Cytotoxicity against HCEC cells; No cytotoxicity. It counts as functional, cell-based. The note with it: Homo sapiens.

On to `CCOCCOCCOCCOC(=O)CCC(=O)CN`, for which the Cytotoxicity entry in the assay with A549 and with HCEC was “No cytotoxicity” each time.
`CCOCCOC(=O)CCC(=O)CN`: the Cytotoxicity entry in the assay with A549 and in the assay on HCEC was “No cytotoxicity” throughout.
Consider `CCOCCOCCOC(=O)CCC(=O)CN`, for which the Cytotoxicity entry in the assay on A549 and in the assay on HCEC was “No cytotoxicity” each time.
For the molecule `COCCOC(=O)CCC(=O)CN`, the Cytotoxicity entry in the assay on A549 and in the assay with HCEC was “No cytotoxicity” each time.

Source of the values: ChEMBL document CHEMBL1132945, “Ethylene glycol and amino acid derivatives of 5-aminolevulinic acid as new photosensitizing precursors of protoporphyrin IX in cells” (J Med Chem, 2000).
